{
  "source": "paper PMC5823858",
  "about": "“Endogenous insensitivity to the Orco agonist VUAA1 reveals novel olfactory receptor complex properties in the specialist fly Mayetiola destructor” (Scientific Reports, 2018)",
  "test_in_all_cases": "Fluo-4AM calcium fluorescence, plate reader",
  "key": {"[1]": {"tested_on": "T1, MdesOR115 + AsegOrco", "T1 construct": "gene OR115; heterospecific complex: M. destructor OR115 (V5 tag) with Agrotis segetum Orco (c-myc tag), TREx/HEK293; with Odorant receptor coreceptor (Agrotis segetum)", "assay_type": "cell-based, Mayetiola destructor", "conditions": "agonist of OR; heterospecific Orco co-expressed"}, "[2]": {"tested_on": "T2, MdesOR115 + MdesOrco", "T2 construct": "gene OR115; stoichiometry unknown; with Odorant receptor coreceptor", "assay_type": "cell-based, Mayetiola destructor", "conditions": "agonist of OR; OR and mutant Orco co-expressed", "from_the_text": "Fluo-4AM calcium fluorescence, plate reader on MdesOR115 + MdesOrco | when co-expressed with either WT MdesOrco or MdesOrco^(H81F, N133L, A350S)"}, "[3]": {"tested_on": "T3, MdesOR115 + DmelOrco", "T3 construct": "gene OR115; heterospecific complex: M. destructor OR115 (V5 tag) with Drosophila melanogaster Orco (c-myc tag), TREx/HEK293; with Odorant receptor coreceptor (Drosophila melanogaster)", "assay_type": "cell-based, Mayetiola destructor", "conditions": "agonist of OR; heterospecific Orco co-expressed"}, "[4]": {"tested_on": "T2, MdesOR115 + MdesOrco", "assay_type": "cell-based, Mayetiola destructor", "conditions": "agonist of OR; OR and Orco co-expressed"}, "[5]": {"tested_on": "T4, AsegOR7 + DmelOrco", "T4 construct": "gene OR7; heterospecific complex: A. segetum OR7 (V5 tag) with Drosophila melanogaster Orco (c-myc tag), TREx/HEK293; with Odorant receptor coreceptor (Drosophila melanogaster)", "assay_type": "cell-based, Agrotis segetum", "conditions": "agonist of OR; heterospecific Orco co-expressed", "from_the_text": "Fluo-4AM calcium fluorescence, plate reader on AsegOR7 + DmelOrco | they responded well to their respective OR-specific ligand"}, "[6]": {"tested_on": "T5, AsegOR7 + MdesOrco", "T5 construct": "gene OR7; heterospecific complex: A. segetum OR7 (V5 tag) with Mayetiola destructor Orco (c-myc tag), TREx/HEK293; with Odorant receptor coreceptor (Mayetiola destructor)", "assay_type": "cell-based, Agrotis segetum", "conditions": "agonist of OR; heterospecific mutant Orco co-expressed", "from_the_text": "Fluo-4AM calcium fluorescence, plate reader on AsegOR7 + MdesOrco | when co-expressed with either version of MdesOrco"}, "[7]": {"tested_on": "T5, AsegOR7 + MdesOrco", "assay_type": "cell-based, Agrotis segetum", "conditions": "agonist of OR; heterospecific Orco co-expressed"}, "[8]": {"tested_on": "T6, AsegOR7 + AsegOrco", "T6 construct": "gene OR7; stoichiometry unknown; with Odorant receptor coreceptor", "assay_type": "cell-based, Agrotis segetum", "conditions": "agonist of OR; OR and mutant Orco co-expressed"}, "[9]": {"tested_on": "T6, AsegOR7 + AsegOrco", "assay_type": "cell-based, Agrotis segetum", "conditions": "agonist of OR; OR and Orco co-expressed", "from_the_text": "Fluo-4AM calcium fluorescence, plate reader on AsegOR7 + AsegOrco | when AsegOR7 was co-expressed with WT AsegOrco the cells responded dose dependently"}, "[10]": {"molecular_target": "T7, DmelOR56a + DmelOrco (Drosophila melanogaster, UniProt Q9V8Y7)", "T7 construct": "gene Or56a; stoichiometry unknown; with Odorant receptor coreceptor", "T7 sequence (Q9V8Y7 1-419)": "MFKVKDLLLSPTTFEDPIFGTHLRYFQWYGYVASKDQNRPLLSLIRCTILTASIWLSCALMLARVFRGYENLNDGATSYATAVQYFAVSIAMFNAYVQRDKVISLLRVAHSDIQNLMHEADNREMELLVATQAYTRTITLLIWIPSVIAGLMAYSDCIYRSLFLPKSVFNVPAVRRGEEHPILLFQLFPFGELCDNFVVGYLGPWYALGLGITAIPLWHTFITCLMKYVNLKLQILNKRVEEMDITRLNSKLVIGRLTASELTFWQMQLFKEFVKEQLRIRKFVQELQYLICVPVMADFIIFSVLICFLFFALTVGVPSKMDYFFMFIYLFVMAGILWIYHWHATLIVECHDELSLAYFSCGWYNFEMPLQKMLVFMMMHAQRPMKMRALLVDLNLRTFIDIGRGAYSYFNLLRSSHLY", "T7 sequence (Q9VNB5 1-486 partner)": "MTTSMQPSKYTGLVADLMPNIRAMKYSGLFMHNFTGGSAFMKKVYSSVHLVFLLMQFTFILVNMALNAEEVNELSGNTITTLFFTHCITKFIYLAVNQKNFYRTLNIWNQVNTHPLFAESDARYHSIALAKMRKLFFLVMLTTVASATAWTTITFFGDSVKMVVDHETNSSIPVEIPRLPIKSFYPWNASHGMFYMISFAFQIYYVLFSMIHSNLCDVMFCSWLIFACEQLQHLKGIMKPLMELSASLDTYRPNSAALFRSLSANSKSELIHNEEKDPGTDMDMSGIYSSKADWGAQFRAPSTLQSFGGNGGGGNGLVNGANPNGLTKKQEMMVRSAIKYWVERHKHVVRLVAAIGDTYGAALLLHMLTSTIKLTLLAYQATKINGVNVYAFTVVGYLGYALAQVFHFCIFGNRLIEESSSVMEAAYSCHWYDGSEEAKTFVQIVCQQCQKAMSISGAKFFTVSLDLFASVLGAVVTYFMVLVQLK", "assay_type": "cell-based", "conditions": "agonist of OR; OR and Orco co-expressed", "from_the_text": "Fluo-4AM calcium fluorescence, plate reader on DmelOR56a + DmelOrco | when DmelOR56a was co-expressed with WT DmelOrco the cells responded dose-dependently to geosmin"}, "[11]": {"molecular_target": "T8, DmelOR56a + MdesOrco (Drosophila melanogaster, UniProt Q9V8Y7)", "T8 construct": "gene Or56a; heterospecific complex: D. melanogaster OR56a (V5 tag) with Mayetiola destructor Orco (c-myc tag), TREx/HEK293; with Odorant receptor coreceptor (Mayetiola destructor)", "T8 sequence (Q9V8Y7 1-419)": "T7 sequence (Q9V8Y7 1-419)", "T8 sequence (A0A1D8GZG0 1-466 partner)": "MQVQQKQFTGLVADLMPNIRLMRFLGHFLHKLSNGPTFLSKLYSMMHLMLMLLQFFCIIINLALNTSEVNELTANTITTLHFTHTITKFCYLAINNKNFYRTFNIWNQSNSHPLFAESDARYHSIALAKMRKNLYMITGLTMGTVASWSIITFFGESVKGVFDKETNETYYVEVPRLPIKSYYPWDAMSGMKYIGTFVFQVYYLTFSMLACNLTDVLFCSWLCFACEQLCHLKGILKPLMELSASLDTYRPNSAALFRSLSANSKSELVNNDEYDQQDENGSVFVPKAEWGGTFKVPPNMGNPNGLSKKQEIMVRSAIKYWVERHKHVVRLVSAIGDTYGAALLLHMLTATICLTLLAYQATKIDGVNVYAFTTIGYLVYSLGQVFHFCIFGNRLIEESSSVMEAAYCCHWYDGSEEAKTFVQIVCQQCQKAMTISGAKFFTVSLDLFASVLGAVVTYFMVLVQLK", "assay_type": "cell-based", "conditions": "agonist of OR; heterospecific Orco co-expressed"}, "[12]": {"molecular_target": "T9, DmelOR56a + AsegOrco (Drosophila melanogaster, UniProt Q9V8Y7)", "T9 construct": "gene Or56a; heterospecific complex: D. melanogaster OR56a (V5 tag) with Agrotis segetum Orco (c-myc tag), TREx/HEK293; with Odorant receptor coreceptor (Agrotis segetum)", "T9 sequence (Q9V8Y7 1-419)": "T7 sequence (Q9V8Y7 1-419)", "T9 sequence (U5KJY5 2-473 partner limits assumed)": "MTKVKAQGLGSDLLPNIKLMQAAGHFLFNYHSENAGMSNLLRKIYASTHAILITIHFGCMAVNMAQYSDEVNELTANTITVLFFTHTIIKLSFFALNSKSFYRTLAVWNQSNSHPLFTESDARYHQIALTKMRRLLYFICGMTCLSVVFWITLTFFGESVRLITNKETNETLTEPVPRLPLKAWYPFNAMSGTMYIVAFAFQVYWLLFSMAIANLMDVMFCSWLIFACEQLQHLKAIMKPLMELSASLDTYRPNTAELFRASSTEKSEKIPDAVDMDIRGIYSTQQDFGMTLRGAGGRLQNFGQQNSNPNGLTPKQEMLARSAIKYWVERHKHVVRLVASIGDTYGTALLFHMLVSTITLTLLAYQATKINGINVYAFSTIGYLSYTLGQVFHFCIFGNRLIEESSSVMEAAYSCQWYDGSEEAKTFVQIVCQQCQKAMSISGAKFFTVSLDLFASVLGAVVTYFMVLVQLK", "assay_type": "cell-based", "conditions": "agonist of OR; heterospecific Orco co-expressed", "from_the_text": "Fluo-4AM calcium fluorescence, plate reader on DmelOR56a + AsegOrco | they responded well to their respective OR-specific ligand"}, "[13]": {"molecular_target": "T10, MdesOrco (Mayetiola destructor, UniProt A0A1D8GZG0, A350S/H81F/N133L)", "T10 construct": "homomeric channel", "T10 sequence (A0A1D8GZG0 1-466 H81F/N133L/A350S)": "T8 sequence (A0A1D8GZG0 1-466 partner)", "assay_type": "cell-based", "from_the_text": "Fluo-4AM calcium fluorescence, plate reader on MdesOrco | MdesOrco^(H81F, N133L, A350S) responded similarly to VUAA1 in HEK293 cells"}, "[14]": {"molecular_target": "T11, MdesOrco (Mayetiola destructor, UniProt A0A1D8GZG0, A350S/C230Q/C408S/H81F/I150T/N133L/T205L)", "T11 construct": "homomeric channel", "T11 sequence (A0A1D8GZG0 1-466 H81F/N133L/I150T/T205L/C230Q/A350S/C408S)": "T8 sequence (A0A1D8GZG0 1-466 partner)", "assay_type": "cell-based", "from_the_text": "Fluo-4AM calcium fluorescence, plate reader on MdesOrco | contained the seven point mutations responded well to VUAA1"}, "[15]": {"molecular_target": "T12, AsegOrco (Agrotis segetum, UniProt U5KJY5)", "T12 construct": "homomeric channel", "T12 sequence (U5KJY5 2-473 limits assumed)": "T9 sequence (U5KJY5 2-473 partner limits assumed)", "assay_type": "cell-based", "from_the_text": "Fluo-4AM calcium fluorescence, plate reader on AsegOrco | WT AsegOrco and DmelOrco responded dose-dependently to VUAA1"}, "[16]": {"molecular_target": "T13, DmelOrco (Drosophila melanogaster, UniProt Q9VNB5)", "T13 construct": "gene Orco; homomeric channel", "T13 sequence (Q9VNB5 1-486)": "T7 sequence (Q9VNB5 1-486 partner)", "assay_type": "cell-based", "from_the_text": "Fluo-4AM calcium fluorescence, plate reader on DmelOrco | WT AsegOrco and DmelOrco responded dose-dependently to VUAA1"}},
  "data": [
    {"compound": "CC/C=C/C=C/CCCCC[C@H](C)OC(C)=O", "note": "[(2S,8E,10E)-8,10-tridecadien-2-yl acetate]", "values": [
      {"measurement": "EC50", "setting": "[1]", "value": 3500, "unit": "nM"},
      {"measurement": "EC50", "setting": "[2]", "value": 3100, "unit": "nM"},
      {"measurement": "EC50", "setting": "[3]", "value": 6200, "unit": "nM"},
      {"measurement": "EC50", "setting": "[4]", "value": 2600, "unit": "nM"}
    ]},
    {"compound": "CCCC/C=C\\CCCCOC(C)=O", "note": "[(Z)-5-decenyl acetate]", "values": [
      {"measurement": "EC50", "setting": "[5]", "value": 1200, "unit": "nM"},
      {"measurement": "EC50", "setting": "[6]", "value": 2800, "unit": "nM"},
      {"measurement": "EC50", "setting": "[7]", "value": 2500, "unit": "nM"},
      {"measurement": "EC50", "setting": "[8]", "value": 2200, "unit": "nM"},
      {"measurement": "EC50", "setting": "[9]", "value": 2300, "unit": "nM"}
    ]},
    {"compound": "C[C@H]1CCC[C@@]2(C)CCCC[C@]12O", "note": "[geosmin]", "values": [
      {"measurement": "EC50", "setting": "[10]", "value": 19.1, "unit": "nM"},
      {"measurement": "EC50", "setting": "[11]", "value": 93.5, "unit": "nM"},
      {"measurement": "EC50", "setting": "[12]", "value": 37.2, "unit": "nM"}
    ]},
    {"compound": "CCc1ccc(NC(=O)CSc2nnc(-c3cccnc3)n2CC)cc1", "note": "[VUAA1, N-(4-ethylphenyl)-2-((4-ethyl-5-(3-pyridinyl)-4H-1,2,4-triazol-3-yl)thio)acetamide]", "values": [
      {"measurement": "EC50", "setting": "[13]", "value": 25000, "unit": "nM"},
      {"measurement": "EC50", "setting": "[14]", "value": 26300, "unit": "nM"},
      {"measurement": "EC50", "setting": "[15]", "value": 27300, "unit": "nM"},
      {"measurement": "EC50", "setting": "[16]", "value": 15300, "unit": "nM"}
    ]}
  ]
}
